Experiment [1] deals with SRSF protein kinase 2 (Homo sapiens) (UniProt P78362). In words: Inhibition of SRPK2 (unknown origin) at 10 uM after 120 mins P33 radiolabeled kinase activity assay.
The target of experiment [2] is Mitogen-activated protein kinase 11 (Homo sapiens) (UniProt Q15759). The experiment in a line: Inhibition of P38beta (unknown origin) at 10 uM after 120 mins P33 radiolabeled kinase activity assay.
In experiment [3] the target is Cyclin-dependent kinase 2 (Homo sapiens) (UniProt P24941). In words: Inhibition of CDK2 (unknown origin) at 10 uM after 120 mins P33 radiolabeled kinase activity assay.
Experiment [4] concerns the target T1, Serine/threonine-protein kinase Nek2 (Homo sapiens) (UniProt P51955).
T1 sequence (whole entry): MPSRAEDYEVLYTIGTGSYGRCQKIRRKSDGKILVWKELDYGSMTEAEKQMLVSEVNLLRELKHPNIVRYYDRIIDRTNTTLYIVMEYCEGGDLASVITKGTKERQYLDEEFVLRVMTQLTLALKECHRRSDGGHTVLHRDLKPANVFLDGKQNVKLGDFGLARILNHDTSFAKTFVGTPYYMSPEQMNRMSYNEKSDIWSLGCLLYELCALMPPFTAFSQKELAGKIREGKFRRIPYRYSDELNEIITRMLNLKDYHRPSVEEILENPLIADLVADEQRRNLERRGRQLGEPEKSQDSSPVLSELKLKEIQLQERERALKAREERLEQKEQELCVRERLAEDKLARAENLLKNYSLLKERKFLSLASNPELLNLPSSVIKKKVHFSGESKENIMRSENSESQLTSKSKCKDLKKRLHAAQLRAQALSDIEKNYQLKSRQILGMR
In words: Inhibition of NEK2 (unknown origin) at 10 uM after 120 mins P33 radiolabeled kinase activity assay.

In experiment [5] the target is Mitogen-activated protein kinase kinase kinase kinase 5 (Homo sapiens) (UniProt Q9Y4K4). In words: Inhibition of KHS (unknown origin) at 10 uM after 120 mins P33 radiolabeled kinase activity assay.
The target in experiment [6] is Insulin receptor-related protein (Homo sapiens) (UniProt P14616). The experiment in a line: Inhibition of IRR (unknown origin) at 10 uM after 120 mins P33 radiolabeled kinase activity assay.
Insulin receptor-related protein (Homo sapiens), sequence (P14616 27-742 limits assumed): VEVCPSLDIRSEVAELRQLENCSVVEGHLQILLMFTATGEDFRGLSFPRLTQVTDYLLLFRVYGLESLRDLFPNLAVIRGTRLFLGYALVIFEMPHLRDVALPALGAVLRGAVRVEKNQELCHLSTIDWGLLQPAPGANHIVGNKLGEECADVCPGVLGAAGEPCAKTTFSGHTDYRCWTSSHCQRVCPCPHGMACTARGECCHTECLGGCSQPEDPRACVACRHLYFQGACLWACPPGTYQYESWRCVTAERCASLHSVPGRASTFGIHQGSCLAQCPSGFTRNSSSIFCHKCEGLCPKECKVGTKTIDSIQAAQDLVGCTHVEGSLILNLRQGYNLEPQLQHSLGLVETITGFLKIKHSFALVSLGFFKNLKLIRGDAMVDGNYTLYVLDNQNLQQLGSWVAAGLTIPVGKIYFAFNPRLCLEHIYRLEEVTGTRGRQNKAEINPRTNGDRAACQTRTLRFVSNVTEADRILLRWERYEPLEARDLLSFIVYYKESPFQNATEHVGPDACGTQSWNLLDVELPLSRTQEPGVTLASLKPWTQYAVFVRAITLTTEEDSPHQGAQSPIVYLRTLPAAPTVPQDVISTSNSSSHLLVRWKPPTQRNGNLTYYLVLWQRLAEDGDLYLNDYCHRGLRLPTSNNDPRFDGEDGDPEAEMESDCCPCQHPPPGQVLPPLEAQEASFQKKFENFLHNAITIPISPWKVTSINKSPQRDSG
Insulin receptor-related protein (Homo sapiens), sequence (P14616 747-1297 limits assumed): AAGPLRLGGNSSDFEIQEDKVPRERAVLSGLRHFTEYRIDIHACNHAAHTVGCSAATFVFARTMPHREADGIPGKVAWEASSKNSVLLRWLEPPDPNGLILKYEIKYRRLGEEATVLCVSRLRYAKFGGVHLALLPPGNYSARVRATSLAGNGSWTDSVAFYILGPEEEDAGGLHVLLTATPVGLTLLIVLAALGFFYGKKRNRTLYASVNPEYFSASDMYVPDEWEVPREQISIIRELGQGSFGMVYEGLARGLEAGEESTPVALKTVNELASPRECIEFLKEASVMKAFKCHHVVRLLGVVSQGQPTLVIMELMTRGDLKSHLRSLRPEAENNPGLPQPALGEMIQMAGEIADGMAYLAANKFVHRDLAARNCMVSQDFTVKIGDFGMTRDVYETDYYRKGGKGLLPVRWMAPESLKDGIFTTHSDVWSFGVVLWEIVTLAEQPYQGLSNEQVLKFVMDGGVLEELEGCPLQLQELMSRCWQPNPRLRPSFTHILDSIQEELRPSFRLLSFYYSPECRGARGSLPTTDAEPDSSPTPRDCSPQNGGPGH
The target in experiment [7] is T2, Ephrin type-A receptor 1 (Homo sapiens) (UniProt P21709).
T2 sequence (whole entry): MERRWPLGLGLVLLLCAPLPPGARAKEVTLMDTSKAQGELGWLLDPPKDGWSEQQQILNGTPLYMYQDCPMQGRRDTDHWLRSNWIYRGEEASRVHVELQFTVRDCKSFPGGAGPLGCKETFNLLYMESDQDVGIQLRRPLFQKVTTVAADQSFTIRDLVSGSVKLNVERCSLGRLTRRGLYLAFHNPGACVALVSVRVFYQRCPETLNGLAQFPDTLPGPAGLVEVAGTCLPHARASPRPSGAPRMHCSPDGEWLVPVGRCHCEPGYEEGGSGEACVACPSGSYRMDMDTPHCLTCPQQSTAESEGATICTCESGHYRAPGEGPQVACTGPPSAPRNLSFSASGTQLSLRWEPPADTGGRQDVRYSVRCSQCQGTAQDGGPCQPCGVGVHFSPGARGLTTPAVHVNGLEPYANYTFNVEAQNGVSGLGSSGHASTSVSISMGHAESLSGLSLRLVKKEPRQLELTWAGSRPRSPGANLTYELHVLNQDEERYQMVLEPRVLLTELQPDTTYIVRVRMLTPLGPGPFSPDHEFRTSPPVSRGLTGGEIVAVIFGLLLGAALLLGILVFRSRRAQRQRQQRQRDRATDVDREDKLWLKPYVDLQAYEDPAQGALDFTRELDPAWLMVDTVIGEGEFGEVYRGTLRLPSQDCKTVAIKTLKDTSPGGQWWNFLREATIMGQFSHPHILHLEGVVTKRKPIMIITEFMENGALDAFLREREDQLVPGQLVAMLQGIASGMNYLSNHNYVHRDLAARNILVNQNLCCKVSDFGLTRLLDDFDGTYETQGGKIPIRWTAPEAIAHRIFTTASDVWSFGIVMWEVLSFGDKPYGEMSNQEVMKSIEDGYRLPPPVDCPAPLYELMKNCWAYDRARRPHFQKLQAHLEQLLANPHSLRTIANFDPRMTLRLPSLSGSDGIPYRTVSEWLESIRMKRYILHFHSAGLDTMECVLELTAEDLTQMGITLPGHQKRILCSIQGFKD
In words: Inhibition of EPHA1 (unknown origin) at 10 uM after 120 mins P33 radiolabeled kinase activity assay.

The target of experiment [8] is T3, Inhibitor of nuclear factor kappa-B kinase subunit alpha (Homo sapiens) (UniProt O15111).
T3 sequence (whole entry): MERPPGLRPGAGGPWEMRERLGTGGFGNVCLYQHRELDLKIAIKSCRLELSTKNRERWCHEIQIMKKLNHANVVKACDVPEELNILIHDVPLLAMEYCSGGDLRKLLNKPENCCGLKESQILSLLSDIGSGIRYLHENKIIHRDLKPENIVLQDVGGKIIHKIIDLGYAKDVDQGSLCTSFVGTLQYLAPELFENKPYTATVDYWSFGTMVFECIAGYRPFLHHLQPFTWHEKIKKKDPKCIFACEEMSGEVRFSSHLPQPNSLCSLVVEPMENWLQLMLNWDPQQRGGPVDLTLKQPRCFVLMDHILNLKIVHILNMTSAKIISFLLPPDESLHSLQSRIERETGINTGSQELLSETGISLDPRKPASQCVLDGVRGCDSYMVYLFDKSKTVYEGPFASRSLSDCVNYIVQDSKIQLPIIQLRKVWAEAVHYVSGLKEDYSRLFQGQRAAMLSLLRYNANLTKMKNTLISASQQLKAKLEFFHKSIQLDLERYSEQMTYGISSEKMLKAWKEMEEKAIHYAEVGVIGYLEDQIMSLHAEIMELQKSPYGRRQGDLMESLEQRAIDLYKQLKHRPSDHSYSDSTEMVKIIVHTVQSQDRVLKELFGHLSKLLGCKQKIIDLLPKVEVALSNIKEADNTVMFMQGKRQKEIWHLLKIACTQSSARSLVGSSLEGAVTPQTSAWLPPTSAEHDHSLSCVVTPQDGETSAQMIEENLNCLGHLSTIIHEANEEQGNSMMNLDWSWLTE
In words: Inhibition of IKKalpha (unknown origin) at 10 uM after 120 mins P33 radiolabeled kinase activity assay.

The target of experiment [9] is Serine/threonine-protein kinase PAK 2 (Homo sapiens) (UniProt Q13177). The experiment in a line: Inhibition of PAK2 (unknown origin) at 10 uM after 120 mins P33 radiolabeled kinase activity assay.
Serine/threonine-protein kinase PAK 2 (Homo sapiens), sequence (Q13177 whole entry): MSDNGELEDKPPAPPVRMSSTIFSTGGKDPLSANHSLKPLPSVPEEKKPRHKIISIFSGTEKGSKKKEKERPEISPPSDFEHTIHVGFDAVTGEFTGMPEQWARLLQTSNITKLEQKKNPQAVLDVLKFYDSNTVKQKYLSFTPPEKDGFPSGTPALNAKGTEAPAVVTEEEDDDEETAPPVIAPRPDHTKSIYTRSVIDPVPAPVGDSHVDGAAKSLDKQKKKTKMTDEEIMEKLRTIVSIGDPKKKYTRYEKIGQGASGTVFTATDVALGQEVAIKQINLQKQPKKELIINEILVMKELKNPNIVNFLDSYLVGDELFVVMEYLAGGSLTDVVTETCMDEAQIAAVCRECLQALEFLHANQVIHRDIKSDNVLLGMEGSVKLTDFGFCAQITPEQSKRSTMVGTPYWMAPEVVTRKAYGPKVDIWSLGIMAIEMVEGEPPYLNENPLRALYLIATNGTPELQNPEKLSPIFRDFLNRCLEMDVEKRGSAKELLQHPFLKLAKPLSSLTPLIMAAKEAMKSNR
Experiment [10] concerns the target Cyclin-dependent kinase 14 (Homo sapiens) (UniProt O94921). The experiment in a line: Inhibition of PFTK1 (unknown origin) at 10 uM after 120 mins P33 radiolabeled kinase activity assay.
The target in experiment [11] is cAMP-dependent protein kinase catalytic subunit gamma (Homo sapiens) (UniProt P22612). The experiment in a line: Inhibition of PKAcgamma (unknown origin) at 10 uM after 120 mins P33 radiolabeled kinase activity assay.
cAMP-dependent protein kinase catalytic subunit gamma (Homo sapiens), sequence (P22612 2-351 limits assumed): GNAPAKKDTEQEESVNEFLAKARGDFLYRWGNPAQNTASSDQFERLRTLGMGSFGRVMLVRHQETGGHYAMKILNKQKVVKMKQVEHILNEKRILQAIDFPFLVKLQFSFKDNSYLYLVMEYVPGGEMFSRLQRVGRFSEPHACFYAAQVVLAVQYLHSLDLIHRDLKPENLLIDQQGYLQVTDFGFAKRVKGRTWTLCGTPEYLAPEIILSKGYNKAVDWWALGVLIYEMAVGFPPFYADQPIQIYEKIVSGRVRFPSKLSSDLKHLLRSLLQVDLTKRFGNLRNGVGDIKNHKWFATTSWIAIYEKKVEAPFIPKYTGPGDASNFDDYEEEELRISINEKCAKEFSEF
In experiment [12] the target is Angiopoietin-1 receptor (Homo sapiens) (UniProt Q02763). The experiment in a line: Inhibition of TIE2 (unknown origin) at 10 uM after 120 mins P33 radiolabeled kinase activity assay.
Angiopoietin-1 receptor (Homo sapiens), sequence (Q02763 whole entry): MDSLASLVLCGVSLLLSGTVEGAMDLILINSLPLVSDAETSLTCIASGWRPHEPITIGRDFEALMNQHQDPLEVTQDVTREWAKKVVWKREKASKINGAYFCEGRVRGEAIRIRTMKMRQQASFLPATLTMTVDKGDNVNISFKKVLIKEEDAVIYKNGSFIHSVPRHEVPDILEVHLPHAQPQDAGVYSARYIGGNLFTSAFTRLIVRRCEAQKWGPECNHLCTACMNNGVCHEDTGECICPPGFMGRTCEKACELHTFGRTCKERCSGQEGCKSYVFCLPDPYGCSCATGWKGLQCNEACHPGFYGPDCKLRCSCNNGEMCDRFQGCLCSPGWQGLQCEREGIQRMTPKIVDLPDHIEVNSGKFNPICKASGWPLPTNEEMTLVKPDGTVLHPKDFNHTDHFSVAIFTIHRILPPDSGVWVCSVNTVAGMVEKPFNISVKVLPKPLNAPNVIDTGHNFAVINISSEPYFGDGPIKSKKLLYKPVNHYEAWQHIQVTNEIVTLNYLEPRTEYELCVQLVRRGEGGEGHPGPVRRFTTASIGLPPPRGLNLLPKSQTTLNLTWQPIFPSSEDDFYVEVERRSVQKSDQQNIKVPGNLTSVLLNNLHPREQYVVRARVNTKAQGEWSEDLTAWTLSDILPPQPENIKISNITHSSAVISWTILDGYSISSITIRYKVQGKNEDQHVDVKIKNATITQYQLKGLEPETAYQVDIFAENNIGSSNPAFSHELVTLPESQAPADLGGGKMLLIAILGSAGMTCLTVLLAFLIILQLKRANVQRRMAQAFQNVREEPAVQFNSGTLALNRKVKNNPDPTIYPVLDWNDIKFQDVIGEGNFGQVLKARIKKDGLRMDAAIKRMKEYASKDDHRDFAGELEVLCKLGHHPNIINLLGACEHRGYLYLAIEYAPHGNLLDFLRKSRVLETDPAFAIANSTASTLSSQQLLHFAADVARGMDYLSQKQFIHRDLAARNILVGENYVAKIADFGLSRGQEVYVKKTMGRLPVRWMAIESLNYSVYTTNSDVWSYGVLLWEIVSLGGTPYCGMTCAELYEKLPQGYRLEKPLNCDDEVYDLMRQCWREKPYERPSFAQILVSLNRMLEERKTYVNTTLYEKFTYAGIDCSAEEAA

SMILES strings stand for the structures.

Mitogen-activated protein kinase 11 (Homo sapiens), sequence (Q15759 whole entry): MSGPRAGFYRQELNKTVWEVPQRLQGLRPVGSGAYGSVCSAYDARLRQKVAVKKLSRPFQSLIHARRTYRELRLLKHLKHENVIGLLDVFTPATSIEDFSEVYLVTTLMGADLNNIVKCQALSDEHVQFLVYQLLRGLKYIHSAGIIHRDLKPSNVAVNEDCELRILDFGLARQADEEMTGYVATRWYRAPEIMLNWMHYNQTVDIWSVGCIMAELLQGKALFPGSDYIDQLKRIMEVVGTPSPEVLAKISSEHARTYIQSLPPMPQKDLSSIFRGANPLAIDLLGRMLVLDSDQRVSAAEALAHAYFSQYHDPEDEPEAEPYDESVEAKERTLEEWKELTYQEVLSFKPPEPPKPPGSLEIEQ
Cyclin-dependent kinase 14 (Homo sapiens), sequence (O94921 whole entry): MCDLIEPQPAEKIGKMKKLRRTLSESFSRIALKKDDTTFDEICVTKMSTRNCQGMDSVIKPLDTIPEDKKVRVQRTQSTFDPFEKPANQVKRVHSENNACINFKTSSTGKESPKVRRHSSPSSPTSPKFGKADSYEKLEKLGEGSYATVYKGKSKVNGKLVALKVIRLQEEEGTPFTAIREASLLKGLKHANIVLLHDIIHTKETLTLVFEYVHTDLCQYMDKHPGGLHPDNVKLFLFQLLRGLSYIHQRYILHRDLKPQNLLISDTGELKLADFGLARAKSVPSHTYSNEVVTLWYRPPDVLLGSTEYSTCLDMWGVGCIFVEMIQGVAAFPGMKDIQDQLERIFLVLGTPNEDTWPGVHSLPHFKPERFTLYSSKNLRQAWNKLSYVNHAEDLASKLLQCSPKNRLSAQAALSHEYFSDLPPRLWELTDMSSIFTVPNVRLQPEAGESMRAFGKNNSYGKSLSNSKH
SRSF protein kinase 2 (Homo sapiens), sequence (P78362 whole entry, looked up): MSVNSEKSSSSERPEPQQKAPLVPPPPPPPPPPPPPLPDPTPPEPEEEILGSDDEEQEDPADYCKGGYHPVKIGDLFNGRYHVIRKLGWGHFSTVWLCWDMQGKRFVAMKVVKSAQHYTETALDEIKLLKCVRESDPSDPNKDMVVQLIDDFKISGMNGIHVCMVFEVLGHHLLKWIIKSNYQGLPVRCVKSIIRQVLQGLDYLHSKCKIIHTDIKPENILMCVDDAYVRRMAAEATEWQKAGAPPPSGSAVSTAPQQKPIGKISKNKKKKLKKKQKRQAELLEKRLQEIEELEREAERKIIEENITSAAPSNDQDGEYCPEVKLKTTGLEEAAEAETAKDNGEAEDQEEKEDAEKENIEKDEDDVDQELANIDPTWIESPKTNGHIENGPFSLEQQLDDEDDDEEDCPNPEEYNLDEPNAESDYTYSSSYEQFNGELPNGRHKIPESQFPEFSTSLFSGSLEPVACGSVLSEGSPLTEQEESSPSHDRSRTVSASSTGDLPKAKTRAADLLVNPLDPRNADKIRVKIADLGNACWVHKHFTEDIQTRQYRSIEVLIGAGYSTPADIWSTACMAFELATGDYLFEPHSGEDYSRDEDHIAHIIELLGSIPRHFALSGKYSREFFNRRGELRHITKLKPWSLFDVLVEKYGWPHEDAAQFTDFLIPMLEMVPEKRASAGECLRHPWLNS

For the compound `CS(=O)(=O)c1cccc(Nc2nccc(-c3sc(N4CCOCC4)nc3-c3cccc(NS(=O)(=O)c4c(F)cccc4F)c3)n2)c1`, the inhibition in experiment [1] is 17.7%; in experiment [2], -5.84%; in [3], 75.7%; in experiment [4], 20.5%; in experiment [5] it was 93.5%; in experiment [6] it was 10.1%. Besides, the inhibition was 91.4% in [7]; 3.48% in experiment [8]; 15.8% in [9]; 50.9% in [10]; 9.35% in experiment [11]; 97% in experiment [12].
Take `CC(C)(C)c1cc(NC(=O)Nc2ccc(Oc3ccncc3)cc2)no1`: the inhibition in experiment [1] came to 18%; in experiment [2], 96.2%; in [3], 67.3%; in experiment [4], 18.6%; in experiment [5], 90%; in [6], 33%. Moreover, the inhibition in experiment [7] turned out to be 86.2%; in experiment [8], 11.2%; in experiment [9], 9.28%; in experiment [10], 86.7%; in experiment [11], 78.7%; in [12], 69.2%.
In the case of `COCCNC(=O)c1ccc2c(c1)nc(-c1cnc(-c3ccc(Cl)cc3)[nH]1)n2CCOC`, the inhibition in experiment [1] was 7.04%; in experiment [2], 10%; in experiment [3], 7.06%; in experiment [4], 2.45%; in experiment [5], 33.6%; in [6], 1.49%. The inhibition in [7] is 16.6%; in [8], 2.39%; in experiment [9], 6.88%; in experiment [10], -3.92%; in [11], 0.62%; in [12], 4.75%.

Source of the values: ChEMBL document CHEMBL3627608, “Crystal structures of human RIP2 kinase catalytic domain complexed with ATP-competitive inhibitors: Foundations for understanding inhibitor selectivity” (Bioorg Med Chem, 2015).
